# Test results from ChEMBL document CHEMBL5113387, “An insight into the multifunctional role of ghrelin and structure activity relationship studies of ghrelin receptor ligands with clinical trials” (Eur J Med Chem, 2022).
# Peptide text beside a SMILES is read from it.
# What was measured:
# [1] = target: T1, Growth hormone secretagogue receptor type 1 (Homo sapiens, UniProt Q92847); test: Binding affinity to GHS-R1a (unknown origin) assessed as inhibition constant
# [2] = Oral bioavailability in human; type: ADME, organism-based; details: in vivo
# [3] = target: T1, Growth hormone secretagogue receptor type 1; test: Binding affinity to GHS-R1a (unknown origin); details: filed as agonist
# [4] = Stimulation of growth hormone secretion in rat pituitary cells; type: functional, cell-based; details: Pituitary gland cell
# [5] = Stimulation of growth hormone secretion in Wistar rat pituitary cells measured after 15 mins; type: functional, cell-based; details: Pituitary gland cell, 0.25 h
# T1 sequence (Q92847 whole entry): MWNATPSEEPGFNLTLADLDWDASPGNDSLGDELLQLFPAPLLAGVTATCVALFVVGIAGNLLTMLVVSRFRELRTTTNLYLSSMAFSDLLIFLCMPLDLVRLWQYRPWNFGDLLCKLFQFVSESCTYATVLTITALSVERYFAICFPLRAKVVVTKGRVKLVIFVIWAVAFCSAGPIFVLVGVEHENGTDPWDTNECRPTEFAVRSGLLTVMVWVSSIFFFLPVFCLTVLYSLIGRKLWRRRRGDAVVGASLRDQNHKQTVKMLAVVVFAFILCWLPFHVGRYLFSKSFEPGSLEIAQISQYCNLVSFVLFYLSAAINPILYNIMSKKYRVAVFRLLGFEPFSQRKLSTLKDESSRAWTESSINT
SMILES,EC50 [4],also measured
CN1CCC(S(=O)(=O)N[C@@H](COCc2ccccc2)C(=O)N2CCC3(CC2)CN(S(C)(=O)=O)c2ccccc23)CC1,–,Ki [1]: < 100 nM
Cc1[nH]c2ccccc2c1C[C@@H](NC(=O)[C@@H](N)Cc1cnc[nH]1)C(=O)N[C@@H](C)C(=O)N[C@@H](Cc1c[nH]c2ccccc12)C(=O)N[C@H](Cc1ccccc1)C(=O)N[C@@H](CCCCN)C(N)=O [EXAMORELIN] (HELM PEPTIDE1{H.[Cc1[nH]c2ccccc2c1C[C@@H](N[*:1])C(=O)[*:2]].A.W.[dF].K.[am]}$$$$V2.0),–,bioavailability [2]: < 1%
CC(C)(N)C(=O)N[C@H](COCc1ccccc1)C(=O)N1CCC2(CC1)CN(S(C)(=O)=O)c1ccccc12 [IBUTAMOREN],1.3 nM,Activity [3]: 0.3 nM
C[C@H](NC(=O)[C@H](Cc1c[nH]c2ccccc12)NC(=O)[C@@H](N)Cc1c[nH]cn1)C(=O)N[C@@H](Cc1c[nH]c2ccccc12)C(=O)N[C@@H](Cc1ccccc1)C(=O)N[C@@H](CCCCN)C(N)=O (H-HWAWFK-NH2),10 nM,–
C[C@H](O)CNC(C)(C)CC(=O)N[C@@H]1CCc2ccccc2N(Cc2ccc(-c3ccccc3-c3nn[nH]n3)cc2)C1=O,3 nM,–
CC(C)(N)CC(=O)N[C@@H]1CCc2ccccc2N(Cc2ccc(-c3ccccc3-c3nn[nH]n3)cc2)C1=O,60 nM,–
CN1N=C2CCN(C(=O)[C@@H](COCc3ccccc3)NC(=O)C(C)(C)N)C[C@@]2(Cc2ccccc2)C1=O [CAPROMORELIN],–,EC50 [5]: 3 nM
